Test results taken from article PMC5564600 (Oncotarget, 2017).

What was measured:
Experiment in all cases: biochemical
Type in all cases: binding
panel of 442 kinases [1] = biological target: T1, panel of 442 kinases (Homo sapiens, UniProt Q13177); conditions: kinase PAK2; for remaining activity at 1 µM: read-out: % of control at 1 µM
T1 construct: purchased Ambit Biosciences (scanMAXX KINOMEscan)

panel of 442 kinases [2] = biological target: T2, panel of 442 kinases (Homo sapiens, UniProt Q9NRP7); conditions: kinase STK36; for remaining activity at 1 µM: read-out: STK36 (% of control at 1 µM)
T2 construct: purchased Ambit Biosciences (scanMAXX KINOMEscan)
T2 sequence (Q9NRP7 1-1315): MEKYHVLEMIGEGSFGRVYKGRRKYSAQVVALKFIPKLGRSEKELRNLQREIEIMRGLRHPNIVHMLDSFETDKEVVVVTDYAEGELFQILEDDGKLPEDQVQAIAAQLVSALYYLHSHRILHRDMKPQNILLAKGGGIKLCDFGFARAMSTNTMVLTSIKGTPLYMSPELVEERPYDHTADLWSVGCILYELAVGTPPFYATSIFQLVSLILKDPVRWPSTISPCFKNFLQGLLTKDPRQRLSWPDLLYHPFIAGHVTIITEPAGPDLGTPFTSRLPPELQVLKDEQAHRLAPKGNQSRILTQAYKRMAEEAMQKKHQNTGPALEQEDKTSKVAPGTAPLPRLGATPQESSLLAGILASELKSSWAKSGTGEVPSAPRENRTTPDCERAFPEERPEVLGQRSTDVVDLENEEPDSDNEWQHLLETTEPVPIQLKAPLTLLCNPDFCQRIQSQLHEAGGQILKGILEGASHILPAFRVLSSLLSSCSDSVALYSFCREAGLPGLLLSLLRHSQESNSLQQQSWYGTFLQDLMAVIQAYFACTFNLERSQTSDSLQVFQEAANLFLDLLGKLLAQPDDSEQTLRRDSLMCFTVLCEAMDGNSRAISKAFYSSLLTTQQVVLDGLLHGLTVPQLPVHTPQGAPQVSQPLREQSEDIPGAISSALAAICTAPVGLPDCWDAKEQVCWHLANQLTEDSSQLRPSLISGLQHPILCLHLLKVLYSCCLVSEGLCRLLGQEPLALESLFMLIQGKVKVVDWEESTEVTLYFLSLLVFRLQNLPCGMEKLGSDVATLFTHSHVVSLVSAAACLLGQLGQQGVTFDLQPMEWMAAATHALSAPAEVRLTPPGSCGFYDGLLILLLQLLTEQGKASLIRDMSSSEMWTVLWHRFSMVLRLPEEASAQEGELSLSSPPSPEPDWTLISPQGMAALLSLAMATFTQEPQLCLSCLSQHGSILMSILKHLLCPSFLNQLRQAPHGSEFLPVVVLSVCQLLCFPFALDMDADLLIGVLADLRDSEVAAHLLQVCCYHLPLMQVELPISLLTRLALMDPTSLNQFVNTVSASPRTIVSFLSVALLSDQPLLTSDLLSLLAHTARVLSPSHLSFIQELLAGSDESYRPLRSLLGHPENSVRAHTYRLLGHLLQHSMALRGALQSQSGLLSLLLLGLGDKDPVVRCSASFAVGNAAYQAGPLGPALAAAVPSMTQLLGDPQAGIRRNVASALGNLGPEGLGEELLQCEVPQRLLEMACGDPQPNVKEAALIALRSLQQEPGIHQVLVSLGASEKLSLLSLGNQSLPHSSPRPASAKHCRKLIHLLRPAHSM

panel of 442 kinases [3] = biological target: T3, panel of 442 kinases (Homo sapiens, UniProt Q6DT37); conditions: DMPK2; for remaining activity at 1 µM: read-out: % of control at 1 µM
T3 construct: purchased Ambit Biosciences (scanMAXX KINOMEscan)
T3 sequence (Q6DT37 whole entry): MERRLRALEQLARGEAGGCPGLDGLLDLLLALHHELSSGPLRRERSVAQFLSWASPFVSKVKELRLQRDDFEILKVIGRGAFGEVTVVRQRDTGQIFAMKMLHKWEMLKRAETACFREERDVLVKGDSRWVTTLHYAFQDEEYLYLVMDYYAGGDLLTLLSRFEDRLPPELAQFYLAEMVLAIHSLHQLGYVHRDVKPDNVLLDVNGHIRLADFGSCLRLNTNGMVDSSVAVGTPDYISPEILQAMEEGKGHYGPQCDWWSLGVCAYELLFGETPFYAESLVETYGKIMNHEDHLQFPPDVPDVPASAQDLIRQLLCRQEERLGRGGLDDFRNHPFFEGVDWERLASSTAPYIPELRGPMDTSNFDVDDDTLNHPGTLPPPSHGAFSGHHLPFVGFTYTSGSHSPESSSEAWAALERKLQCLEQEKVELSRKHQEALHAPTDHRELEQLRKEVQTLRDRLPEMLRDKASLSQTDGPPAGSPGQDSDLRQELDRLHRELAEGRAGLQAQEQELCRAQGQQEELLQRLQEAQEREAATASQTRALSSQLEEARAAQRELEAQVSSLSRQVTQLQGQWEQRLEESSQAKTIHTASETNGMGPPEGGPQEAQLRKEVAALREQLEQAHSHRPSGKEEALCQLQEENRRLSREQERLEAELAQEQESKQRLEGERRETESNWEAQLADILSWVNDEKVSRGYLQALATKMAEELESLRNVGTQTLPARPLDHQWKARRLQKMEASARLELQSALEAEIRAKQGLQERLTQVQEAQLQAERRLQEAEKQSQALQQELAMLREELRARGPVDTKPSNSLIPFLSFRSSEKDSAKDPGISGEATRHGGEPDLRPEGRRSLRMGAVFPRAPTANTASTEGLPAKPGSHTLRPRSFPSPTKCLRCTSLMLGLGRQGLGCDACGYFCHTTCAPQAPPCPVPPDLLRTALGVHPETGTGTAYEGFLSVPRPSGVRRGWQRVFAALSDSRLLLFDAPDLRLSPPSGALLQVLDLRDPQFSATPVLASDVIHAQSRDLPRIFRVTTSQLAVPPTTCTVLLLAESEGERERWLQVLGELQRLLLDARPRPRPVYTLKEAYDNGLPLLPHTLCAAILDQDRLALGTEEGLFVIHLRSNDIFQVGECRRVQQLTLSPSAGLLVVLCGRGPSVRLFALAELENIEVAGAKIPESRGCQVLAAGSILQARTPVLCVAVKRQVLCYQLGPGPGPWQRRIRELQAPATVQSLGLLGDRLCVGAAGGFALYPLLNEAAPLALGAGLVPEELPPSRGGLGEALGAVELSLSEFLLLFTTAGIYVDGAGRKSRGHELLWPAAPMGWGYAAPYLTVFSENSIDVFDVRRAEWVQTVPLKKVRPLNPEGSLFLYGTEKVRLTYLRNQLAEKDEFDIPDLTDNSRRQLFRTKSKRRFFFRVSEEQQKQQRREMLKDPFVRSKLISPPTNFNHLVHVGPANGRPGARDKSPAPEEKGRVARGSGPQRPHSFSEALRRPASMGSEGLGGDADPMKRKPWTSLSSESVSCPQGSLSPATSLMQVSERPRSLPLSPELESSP

panel of 442 kinases [4] = biological target: T4, panel of 442 kinases (Homo sapiens, UniProt Q8NE63); conditions: kinase HIPK4; for remaining activity at 1 µM: read-out: % of control at 1 µM
T4 construct: purchased Ambit Biosciences (scanMAXX KINOMEscan)
T4 sequence (Q8NE63 1-616): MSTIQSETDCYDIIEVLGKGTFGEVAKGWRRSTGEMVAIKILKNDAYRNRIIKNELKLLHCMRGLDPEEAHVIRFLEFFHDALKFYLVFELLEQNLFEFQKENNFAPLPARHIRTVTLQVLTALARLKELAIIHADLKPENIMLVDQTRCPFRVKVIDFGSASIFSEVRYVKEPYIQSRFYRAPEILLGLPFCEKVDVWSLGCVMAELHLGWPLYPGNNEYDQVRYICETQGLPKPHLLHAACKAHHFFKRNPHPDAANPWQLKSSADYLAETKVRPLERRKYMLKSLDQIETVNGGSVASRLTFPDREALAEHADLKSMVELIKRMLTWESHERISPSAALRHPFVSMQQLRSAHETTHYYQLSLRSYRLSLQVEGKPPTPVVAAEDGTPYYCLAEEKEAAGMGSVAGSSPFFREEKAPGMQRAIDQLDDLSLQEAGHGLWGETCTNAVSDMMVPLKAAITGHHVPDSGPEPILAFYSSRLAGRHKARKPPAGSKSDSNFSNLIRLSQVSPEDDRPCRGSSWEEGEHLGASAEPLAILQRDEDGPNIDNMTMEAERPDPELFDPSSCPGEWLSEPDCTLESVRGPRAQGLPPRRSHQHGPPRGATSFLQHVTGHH

panel of 442 kinases [5] = biological target: T5, panel of 442 kinases (Homo sapiens, UniProt Q15375); conditions: EPHA7; for remaining activity at 1 µM: read-out: % of control at 1 µM
T5 construct: purchased Ambit Biosciences (scanMAXX KINOMEscan)
T5 sequence (Q15375 28-998): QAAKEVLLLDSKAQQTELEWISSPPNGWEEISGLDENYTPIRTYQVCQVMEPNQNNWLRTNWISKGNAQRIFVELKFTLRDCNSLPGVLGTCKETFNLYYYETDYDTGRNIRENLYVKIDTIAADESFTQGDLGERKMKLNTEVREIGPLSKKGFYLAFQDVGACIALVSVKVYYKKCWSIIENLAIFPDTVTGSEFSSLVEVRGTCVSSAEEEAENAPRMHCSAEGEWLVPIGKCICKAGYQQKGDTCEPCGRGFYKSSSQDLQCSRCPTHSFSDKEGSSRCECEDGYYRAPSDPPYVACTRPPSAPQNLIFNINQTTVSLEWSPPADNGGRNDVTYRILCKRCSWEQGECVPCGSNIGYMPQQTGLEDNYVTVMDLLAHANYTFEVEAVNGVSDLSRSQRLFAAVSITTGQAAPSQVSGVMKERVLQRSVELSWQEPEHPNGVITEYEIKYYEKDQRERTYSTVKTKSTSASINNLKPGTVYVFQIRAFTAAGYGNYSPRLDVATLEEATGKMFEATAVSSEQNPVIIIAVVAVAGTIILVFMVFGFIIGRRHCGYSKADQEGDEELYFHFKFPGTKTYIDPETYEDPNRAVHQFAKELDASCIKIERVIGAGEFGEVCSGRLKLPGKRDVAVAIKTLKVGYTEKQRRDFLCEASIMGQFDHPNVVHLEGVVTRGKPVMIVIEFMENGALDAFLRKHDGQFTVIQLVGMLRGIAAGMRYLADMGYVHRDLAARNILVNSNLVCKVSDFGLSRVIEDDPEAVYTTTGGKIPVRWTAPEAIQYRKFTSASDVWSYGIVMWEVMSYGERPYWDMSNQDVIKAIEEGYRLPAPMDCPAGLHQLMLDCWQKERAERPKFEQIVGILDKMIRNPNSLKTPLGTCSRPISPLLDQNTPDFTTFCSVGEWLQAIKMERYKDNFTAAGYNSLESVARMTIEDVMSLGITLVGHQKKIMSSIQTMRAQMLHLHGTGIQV

[6] = 10 µM, read-out: % of control at 10 µM

T1 sequence (Q13177 whole entry): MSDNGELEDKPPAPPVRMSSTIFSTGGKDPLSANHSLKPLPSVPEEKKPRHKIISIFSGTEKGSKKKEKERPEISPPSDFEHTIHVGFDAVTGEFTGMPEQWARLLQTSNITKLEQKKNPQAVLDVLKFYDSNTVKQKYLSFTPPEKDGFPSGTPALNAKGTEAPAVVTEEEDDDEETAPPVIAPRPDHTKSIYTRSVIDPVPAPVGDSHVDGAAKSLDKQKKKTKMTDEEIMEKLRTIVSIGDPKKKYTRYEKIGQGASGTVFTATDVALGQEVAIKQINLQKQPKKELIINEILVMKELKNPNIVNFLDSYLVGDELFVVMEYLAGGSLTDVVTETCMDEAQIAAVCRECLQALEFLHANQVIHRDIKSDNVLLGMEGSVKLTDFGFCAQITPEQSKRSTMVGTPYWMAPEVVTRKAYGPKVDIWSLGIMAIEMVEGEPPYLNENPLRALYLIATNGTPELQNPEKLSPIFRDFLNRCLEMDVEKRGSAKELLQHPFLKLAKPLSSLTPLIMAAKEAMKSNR

Row | Compound | remaining activity at 1 µM (panel of 442 kinases [1]) | remaining activity at 10 µM (panel of 442 kinases [1]; [6]) | remaining activity at 1 µM (panel of 442 kinases [2]) | remaining activity at 10 µM (panel of 442 kinases [2]; 10 µM, read-out: STK36 (% of control at 10 µM)) | remaining activity at 1 µM (panel of 442 kinases [3]) | remaining activity at 10 µM (panel of 442 kinases [3]; [6]) | remaining activity at 1 µM (panel of 442 kinases [4]) | remaining activity at 10 µM (panel of 442 kinases [4]; [6]) | remaining activity at 1 µM (panel of 442 kinases [5]) | remaining activity at 10 µM (panel of 442 kinases [5]; [6])
1 | Nc1cc(C(F)(F)F)c(-c2cc(N3CCOCC3)nc(N3CCOCC3)n2)cn1 [Buparlisib] | 68% | 83% | 100% | 100% | 100% | 100% | 97% | 100% | 100% | 100%
2 | Cn1c(=O)n(-c2ccc(C(C)(C)C#N)cc2)c2c3cc(-c4cnc5ccccc5c4)ccc3ncc21 [Dactolisib, 2-methyl-2-[4-(3-methyl-2-oxo-8-quinolin-3-yl-2,3-dihydroimidazo[4,5-c]quinolin-1-yl)-phenyl] propionitrile] | – | – | 89% | – | 81% | – | 87% | – | 100% | –
3 | COc1ncc(-c2ccc3nccc(-c4ccnnc4)c3c2)cc1NS(=O)(=O)c1ccc(F)cc1F [Omipalisib] | 57% | – | 85% | – | 100% | – | 98% | – | 100% | –
4 | FC(F)c1nc2ccccc2n1-c1nc(N2CCOCC2)nc(N2CCOCC2)n1 [ZSTK474, 2-(difluoromethyl)-1-[4,6-di(4-morpholinyl)-1,3,5-triazin-2-yl]-1H-benzimidazole] | 100% | – | 95% | – | 88% | – | 77% | – | 100% | –
